Test results: patent publication US20260224489A1, “TRICINE AND CITRIC ACID-BASED CATIONIC LIPIDS WITH AROMATIC HEAD GROUPS” (SANOFI, priority 2023, published 2026)

Key:
[1] = test system: luciferase production in the lung; test: Delivery of Firefly Luciferase (FFL) mRNA by intratracheal administration via catheter, IVIS imaging; format: in vivo, male CD1 mice; conditions: for FFLuc (Avr. Rad.): single intratracheal administration, lung; for in vivo FFL protein production (FIG. 8), in words: intratracheal delivery via catheter of FFL mRNA lipid nanoparticles to mice
Experimental: Lipid nanoparticle formulations 1, 2 and 4 were administered via intratracheal pulmonary delivery. Compound B was the only cationic lipid evaluated via intratracheal pulmonary delivery with lipid nanoparticle formulation 2. Compound A was the only cationic lipid evaluated via intratracheal pulmonary delivery with lipid nanoparticle formulation 4. All other cationic lipids were evaluated via intratracheal pulmonary delivery with lipid nanoparticle formulation 1.
Lipid nanoparticle formulations 1, 2 and 4 listed in Table 1 comprising FFL mRNA, cationic lipid, DMG-PEG2000, cholesterol and DOPE were administered to male CD1 mice (6-8 weeks old) by a single intratracheal administration via Catheter® (50 μl/animal) while under anesthesia. At approximately 24 hours post-dose, the animals were dosed with luciferin at 150 mg/kg (60 mg/mi) by intraperitoneal injection at 2.5 ml/kg. After 5-15 minutes, all animals were imaged using an IVIS imaging system to measure luciferase production in the lung.

[2] = Lipid degradability by mouse lung S9 in vitro; format: in vitro ADME; conditions: 2 μM lipid, 2.4 mg/ml lung S9, pH 7.4, 37° C., time points up to 48 hr
Experimental: (§1) Assay format—4 or 5 time points in triplicate.
(§2) • 1) Plan experiment, compounds, and reagents. • 2) Dissolve each lipid in DMSO or IPA to make 5 mM stock, then dilute by IPA to 200 μM work solution. • 3) Thaw mouse and human lung S9. • 4) Prepare pooled incubation mixture as in the reaction formulas below on ice. • 5) Aliquot 495 μL incubation mixture prepared in step #4 to each well of a 2 mL 96-well plate. • 6) Add 5 μL compound to each well to initiate the reaction. Take t0 samples (as in step #8). • 7) Cover the plate with 2 layers of breathable seals and incubate the plate on an orbital shaker at 150 rpm in a 37° C. CO2 incubator. • 8) At each time point, pipette to mix the incubation mixture 5 times, then take 70 μL of incubation mixture to a fresh plate. Store in −20° C. freezer immediately. • 9) Add 210 μL (3× volume) of the cold stop solution to each well of the sample plates collected. Mix at 600 rpm on an orbital shaker for 15 min. • 10) Centrifuge the quenched plates at 3800 rpm for 10 min at 4° C. and transfer supernatant to fresh plates. • 11) Load the supernatant on filter plates and centrifuge again at 3800 rpm for 5 min at 4° C. Collect final samples in fresh plates for LC/MS. • 11. Time course and stop solutions: 4-5 Time points (hour): e.g. 0, 4, 8, 24, 48 hr stop solution: 1:1:1 ACN/MeOH/IPA (v/v/v) with propranolol & MC3 as internal standard. Store at 4° C.

[3] = Lipid degradability by human lung S9 in vitro; format: in vitro ADME; conditions: 2 μM lipid, 2.4 mg/ml lung S9, pH 7.4, 37° C., time points up to 48 hr
Experimental: as §1, §2

[4] = dose 10 μg/Animal, lipid nanoparticle formulation 1, approximately 24 hours post-dose
[5] = dose 5 μg/Animal, lipid nanoparticle formulation 1, approximately 24 hours post-dose

Structure (SMILES)	FFLuc (Avr. Rad.) [1, 4]	In vitro degradation Mouse lung S9 [2] [h]	In vitro degradation Human lung S9 [3]	FFLuc (Avr. Rad.) [1, 5]	in vivo FFL protein production (FIG. 8), in words [1]	also measured
CC(C)CCCC(C)[C@H]1CCC2C3CC=C4C[C@@H](OC(=O)CCc5c[nH]cn5)CC[C@]4(C)C3CC[C@@]21C (stereo partly shown) [ICE, imidazole cholesterol ester, reference compound]	7,508 p/s/cm^2/sr	–	–	–	–	–
CCCCCCCCCCCCC(O)CN(CCCC(=O)Oc1c(OC)cc(C(=O)OCCCN(C)C)cc1OC)CC(O)CCCCCCCCCCCC (stereo not shown) [Compound A, reference compound]	–	–	–	–	–	FFLuc (Avr. Rad.) ([1]; dose 10 μg/Animal, lipid nanoparticle formulation 4, approximately 24 hours post-dose): 221,320 p/s/cm^2/sr
CCCCCC#CCOC(=O)CC(CC(=O)OCC#CCCCCC)(OC(=O)CCC(=O)Oc1c(OC)cc(C(=O)OCCCN(C)C)cc1OC)C(=O)OCC#CCCCCC [Compound V]	567,300 p/s/cm^2/sr	1.3	14.8 h	–	–	–
CCCCCCCCOC(=O)CC(CC(=O)OCCCCCCCC)(OC(=O)/C=C/C(=O)Oc1c(OC)cc(C(=O)OCCCN(C)C)cc1OC)C(=O)OCCCCCCCC [Compound X]	173,197 p/s/cm^2/sr	–	–	–	–	–
CCCCCCCCOC(=O)CC(CC(=O)OCCCCCCCC)(OC(=O)CCC(=O)Oc1c(OC)cc(/C=C/C(=O)OCCCN(C)C)cc1OC)C(=O)OCCCCCCCC [Compound XXVI]	–	36	long (over 48 h	140,620 p/s/cm^2/sr	high levels of in vivo FFL protein production	–
CCCCCCCCOC(=O)CC(CC(=O)OCCCCCCCC)(OC(=O)CCC(=O)Oc1c(OC)cc(C(=O)OCCCN(C)C)cc1OC)C(=O)OCCCCCCCC [Compound II]	–	16.6	20.2 h	592,250 p/s/cm^2/sr	high levels of in vivo FFL protein production	–
CCCCCCCCOC(=O)CC(CC(=O)OCCCCCCCC)(OC(=O)CCC(=O)Oc1c(OC)cc(C(=O)OCCN(C)C)cc1OC)C(=O)OCCCCCCCC [Compound I]	–	16.2	20.2 h	158,516 p/s/cm^2/sr	high levels of in vivo FFL protein production	–
CCCCC/C=C/COC(=O)CC(CC(=O)OC/C=C/CCCCC)(OC(=O)CCC(=O)Oc1c(OC)cc(C(=O)OCCCN(C)C)cc1OC)C(=O)OC/C=C/CCCCC [Compound III]	353,012 p/s/cm^2/sr	6.8	17.1 h	–	–	–
CCCCCCCCOC(=O)CC(CC(=O)OCCCCCCCC)(OC(=O)CCN(C)C)C(=O)OCCCCCCCC [Compound B, reference compound]	–	–	–	–	–	FFLuc (Avr. Rad.) ([1]; dose 10 μg/Animal, lipid nanoparticle formulation 2, approximately 24 hours post-dose): 139,058 p/s/cm^2/sr
